Results on 13 molecules are retold here after patent US5986074A, “Metal chelates as pharmaceutical imaging agents, processes of making such and uses thereof” (Emory University, priority 1997, dated 1999).

Like-named read-outs stand apart in the source and are kept apart here.

Series [1] can be described thus: Stability of thiourea chelates. It is filed as physicochemical.
Series [2] can be described thus: Biodistribution in normal rats (Table 1). Conditions: for Bladder, percent of total activity / Carcass, percent of total activity / Intestines, percent of total activity / Kidneys, percent of total activity / Liver, percent of total activity / Stomach, percent of total activity: normal rats. It is filed as in vivo, rat. As for the experimental part: Tracheostomy was performed in an anesthetized rat and the left jugular vein was cannulated with one piece of PE-50 tubing for injection of the ^99m Tc radiopharmaceutical. The bladder was catheterized utilizing heat flared PE-50 tubing for urine collection. […] Each animal was sacrificed at the conclusion of the dynamic study and simultaneous static images of the isolated lungs, heart, liver, spleen, stomach, kidneys, bowel and bladder with urine were acquired as well as a static image of the rat carcass without the organs. Total counts for the injected dose were determined from the sum of the isolated organ counts and the carcass counts decay corrected to the time of organ imaging. Regions of interest were drawn around each organ to determine the percent injected dose in each organ.

For the next series, the system named is kidney. In words: Renal clearance and extraction efficiency in rats. The note with it: technetium or rhenium chelate. Format: in vivo, rat. As for the experimental part: Clearance was determined by averaging three clearances based on three successive 10 minute urine collections. Clearance=UV/P where U is the urine concentration, V is the urine volume, and P is the plasma concentration. To measure extraction efficiency (EE), a left renal venous blood (0.5 ml) sample was obtained followed by a 3-ml carotid arterial sample. Both blood samples were centrifuged within 5 minutes to obtain a plasma sample. The extraction efficiency was calculated by measuring the difference between the arterial and venous blood sample: EE=(arterial concentration--venous concentrationlarterial concentration). Plasma protein binding (PPB) was determined by ultracentrifugation (Centrifree, Amicon, Inc., Beverly, Mass., micropartition system) of 1 ml arterial plasma. PPB=[1.0-(ultrafiltrate concentration/plasma concentration)]×100.

The nature of series [3]: Normal volunteer studies: plasma clearance, urinary excretion, imaging. Conditions: humans; for Clearance rate (EC/OIH): relative to coinjected OIH. It is filed as in vivo, human. As for the experimental part:
^99m Tc LL-EC, DD-EC and DL-EC were each evaluated in three normal male volunteers. The HPLC purified complexes and phosphate-buffered saline (pH 7.0) were passed through a SEP-PAK Plus C18 cartridge (primed with 1 ml ethanol) and a sterile Millex-GS 0.22 μm filter unit into a sterile, pyrogen-free empty vial. The final concentration was ~2.0 mCi/2.5 ml and the final pH ranged from 5.7 to 7.4. Test samples of each complex were sterile and pyrogen free. Approximately 2 mCi of each ^99m Tc complex were coinjected with 200 μCi of I-131 OIH and plasma samples were obtained at 5, 10, 15, 20, 30 45, 60 and 90 minutes post injection. The plasma clearances of 1-131 OIH and each EC complex were determined using the single injection, two-compartment model of Sapirstein et al., (1955) Am. J. Physiol. 181: 330-336. The volunteers voided at 30, 90 and 180 minutes post injection to determine the percent dose in the urine at each time period. A urine sample from the 30 minute urine collection was obtained for HPLC analysis from one of the normal volunteers and analyzed for each complex. One volunteer was imaged with each complex using a simultaneous acquisition with a 20% window centered over the 363 KeV photopeak of I-131 and a second 20% window over the 140 KeV photopeak of ^99m Tc. Data were acquired in a 128×128 matrix using a three phase dynamic acquisition: phase 1 consisted of 24 two second frames, phase 2 consisted of 16 fifteen second frames and phase 3 consisted of 40 thirty second frames. Data were acquired using a general Electric (Milwaukee, Wis.) Star-Cam computer fitted with a high energy collimator. All studies were performed with the approval of the Human Investigations Committee and a signed consent form was obtained.

Series [4] is described as follows: Ionic forms at physiological pH. Format: physicochemical.
A further series concerns plasma protein. The note with it: cited from earlier work.
The conditions of series [5]: mice and baboons; cited from earlier work.
For series [6] the following is noted: cited from earlier work.
For series [7] the following is noted: cited from earlier work. This is another data set of the same source.
The subject of a further series is kidneys. Conditions: in vivo; cited from earlier work.
For series [8] the following is noted: mice, baboons, volunteers; cited from earlier work.
The test system of a further series is brain. The note with it: in vivo; cited from earlier work.
For series [9] the following is noted: cited from earlier work. The source holds these as a separate data set.

As to `CC(C)(S)C(=O)NCCCNC(=S)NCCC(=O)O` [(Me)2 -TAPTU-EtCOOH, dimethylthioacetamidepropylthiourea-ethylCOOH], the “Stability compared with the corresponding thioacetamidethiourea derivative” value in series [1] is “greater stability than the corresponding thioacetamide-thiourea derivative”; in series [1] (listed as dimethyl-TAPTU-EtCOOH) it was “appeared to be more stable than the corresponding thioacetamidethiourea derivative”.

Take `O=C(O)[C@@H](CS)NCCN[C@H](CS)C(=O)O` [D,D-EC, D,D-ethylenedicysteine]: in [2] (22 minutes post injection), the “Bladder, percent of total activity” value is on record as 63.2% of total activity; the “Carcass, percent of total activity” value is 25.4% of total activity; the “Intestines, percent of total activity” value is listed as 2.6% of total activity; the “Kidneys, percent of total activity” value was 5.4% of total activity. In series [2] (22 minutes post injection), the “Liver, percent of total activity” value was 2.9% of total activity and the “Stomach, percent of total activity” value is on record as < 1% of total activity. Also, the “Removal/excretion by the kidneys, in words” value (“Removal/excretion” for short) in series [2] (rats) is given as “more rapid renal clearance than ^99m Tc MAG3”. In addition, the “Removal/excretion” value in series [2] (rats, listed as 99m Tc-D,D-EC) is “superior to L,L-EC in rats”. Further, in the series with kidney, the “Renal clearance, in words” value was “significantly higher than that of its LL-isomer and than that of ^99m Tc MAG3”. The “Clearance rate (EC/OIH)” value in series [3] is listed as 82±8%. In series [4], the “Dianionic form at physiological pH” value was 80% and the “Monoanionic form at physiological pH” value amounted to 20%.

As for `O=C(O)C(CS)NCCNC(CS)C(=O)O` (stereo not drawn) [EC, ethylene dicysteine], the Protein binding characteristics result in the series on plasma protein was “favorable protein binding characteristics”.

Take `O=C([O-])[C@H](C[S-])NCCN[C@@H](CS)C(=O)[O-].[O]=[Tc+3]` [L,L-EC, L,L-ethylenedicysteine]: in series [2] (22 minutes post injection), the “Bladder, percent of total activity” value was 45.6% of total activity; the “Carcass, percent of total activity” value is recorded as 22.6% of total activity; the “Intestines, percent of total activity” value is listed as 1.8% of total activity; the “Kidneys, percent of total activity” value is 24.4% of total activity. Besides, in series [2] (22 minutes post injection), the “Liver, percent of total activity” value is 4.5% of total activity and the “Stomach, percent of total activity” value is reported as < 1% of total activity. Further, the “Clearance rate (EC/OIH)” value in [3] is 70±3%. Besides, in [4], the “Dianionic form at physiological pH” value came out at 80% and the “Monoanionic form at physiological pH” value was found to be 20%. Besides, in series [5], the “Comparison with ^99m Tc DD-EC” value is listed as “superior to the enantiomer ^99m Tc DD-EC”; the “Pharmacokinetic properties compared with OIH and MAG3” value was “more closely approached those of OIH than the properties of MAG3”.

In the case of `O=C(O)CNC(=O)CNC(=O)CNC(=O)CS` [MAG3, mercaptoacetyltriglycine], in [2] (22 minutes post injection), the “Bladder, percent of total activity” value is 57% of total activity; the “Carcass, percent of total activity” value is listed as 14% of total activity; the “Intestines, percent of total activity” value was 5% of total activity; the “Kidneys, percent of total activity” value is 23% of total activity. Further, in series [2] (22 minutes post injection), the “Liver, percent of total activity” value is listed as 1% of total activity and the “Stomach, percent of total activity” value is on record as < 1% of total activity. The “Plasma-protein binding, in words” value in the series with plasma protein was “very high”. Also, in series [6] (in vivo), the “Clearance compared to DTPA” value is “higher clearance of MAG3 compared to DTPA”. Moreover, the “Clearance relative to OIH” value in series [6] (percent of OIH clearance) is given as 50-60%. The “Transport into the small intestine via the hepatobiliary system” value in series [7] (normal volunteers) is reported as “a small percentage”. The “Transport into the small intestine via the hepatobiliary system” value in [7] (patients with renal failure) is on record as “this percentage increases in patients with renal failure”. The Extraction rate entry in the series with kidneys is on record as “favorably high extraction rate”.

On to `C[C@H](NC(=O)CNC(=O)CS)C(=O)NCC(=O)O` [MAGAG, mercaptoacetylglycylalanylglycine], for which, in series [8], the “Comparison with ^99m Tc MAG3” value was “one diastereomer comparable and the other considerably inferior”.

Take `O=C(O)CNC(=O)c1ccccc1[131I]` [OIH, ^131 I-orthohippurate]: in series [6] (percent of PAH clearance), the “Clearance relative to p-aminohippuric acid (PAH)” value is 83%.

D,L-ethylenedicysteine [DL-EC]: in series [3], the “Rate of excretion in the urine” value is listed as “had a slower rate of excretion” and the “Clearance rate (EC/OIH)” value is recorded as 40±5%.

“L-cysteinylethylenepyridine carboxamide [L-CEPIC]”: in series [2] (30 minutes post injection), the “Bladder, percent of total activity” value was 58.2% of total activity; the “Carcass, percent of total activity” value is recorded as 19.8% of total activity; the “Intestines, percent of total activity” value was 6.4% of total activity; the “Kidneys, percent of total activity” value was 7.2% of total activity. Also, in series [2] (30 minutes post injection), the “Liver, percent of total activity” value is recorded as 4.8% of total activity and the “Stomach, percent of total activity” value is 1.9% of total activity. For the same molecule, in series [2] (rats), the “Removal/excretion” value was “rapid and selective removal of the test compounds by the kidneys”; the “Uptake in other major organs” value was “only trace amounts being taken up in other major organs”. In addition, in [2] (rats, listed as 99m Tc-CEPIC), the “Removal/excretion” value is “even more rapidly excreted by the kidneys than ^99m Tc MAG3”. Besides, the “Renal clearance, in words” value with kidney is listed as “renal clearance efficiency similar to that of ^99m Tc MAG3”.

For the molecule “^99m Tc L,L-ethylenedicysteine diethyl ester [^99m Tc LL-ECD]”, in the series with brain, the Brain perfusion entry was “good brain perfusion agent”.

For “^99m Tc mercaptoacetyl-glycylglycyl-taurine”, the “Comparison with ^99m Tc MAG3 in dogs” value in series [9] is reported as “inferior to ^99m Tc MAG3 in dogs”.

As to “thioacetamidethiourea-ethylCOOH [TATU-EtCOOH]”, the “Renal clearance, in words” value in the series with kidney was “superior renal clearance in rats when compared to a corresponding metal chelate with MAG3”.

Turning to “thioacetamidethiourea-para-phenylCOOH [TATU-pPhCOOH]”, the “Renal clearance, in words” value is “cleared at a moderate rate by the kidneys in rat” with kidney and “cleared at a moderate rate” in the series with kidney (listed as TATU-pPh).
